Measurements: US20250332147A1, “Methods of Treating Multiple Sclerosis” (Vanda Pharmaceuticals Inc., priority 2021, published 2025)

Assays:
[1] = test system: patients with relapsing multiple sclerosis (RMS); test: OPTIMUM phase 3 study (NCT02425644): systemic corticosteroid (SCS) use for treatment of relapse, ponesimod 20 mg vs teriflunomide 14 mg; type: in vivo, human; conditions: for proportion of patients who received ≥1 SCS therapy for treatment of relapse / least squares mean of accumulated steroid dose (prednisone equivalent doses) for treatment of relapse: full analysis set; for proportion of patients who received ≥1 SCS therapy for treatment of relapse: between study treatment start and EOS, PON 20 mg vs TER 14 mg, P<0.0001
Protocol: Subjects were evaluated according to the treatment they were randomized to. • Primary efficacy variable/primary timepoint: The primary endpoint was annualized relapse rate (ARR) up to the end of study (EOS) defined as the number of confirmed relapses per subject-year. All available data up to EOS, regardless of treatment discontinuation was included (ITT approach). Co-Administration of Ponesimod with Corticosteroids
OPTIMUM was a phase 3, double-blind, randomized clinical trial that evaluated the efficacy, safety, and tolerability of PON (20 mg) versus TER (14 mg) in patients with RMS.
Patients with RMS aged 18 to 55 years with a relapsing course (i.e., RMS or secondary progressive MS with superimposed relapses), an Expanded Disability Status Scale (EDSS) score of 0-5.5, and recent clinical or magnetic resonance imaging activity were enrolled.
Patients were excluded from the primary analysis if they received treatment with SCS, unless it was for a multiple sclerosis (MS) relapse or short-term treatment of pulmonary conditions.
In this analysis, the proportions of patients in each treatment group who received concomitant treatment with ≥1 SCS to treat MS relapse between the start of study treatment and end of study (EOS) were compared. In addition, the mean accumulated steroid dose (prednisone equivalent doses in mg) administered to treat relapse between start of study treatment and EOS and between end of treatment (EOT) plus follow-up time was assessed.
Data are shown for analyses of the full analysis set and analyses stratified by baseline EDSS score (baseline EDSS score≤3.5 versus >3.5), prior MS treatment (disease modifying treatment [DMT] within the past 2 years versus no DMT within the past 2 years), or sex (male versus female).
The proportion of patients who received ≥1 SCS therapy for treatment of relapse is provided by treatment group; group differences were examined using Cochran-Mantel Haenszel (CMH) test and stratified by baseline EDSS and prior treatment with DMT.
The between-group difference for the mean accumulated steroid dose for treatment of relapse was evaluated using analysis of covariance models with accumulated steroid dose as the dependent variable, treatment as factor, and EDSS baseline group, and prior treatment with disease-modifying therapy within 2 years prior to randomization as covariates. EDSS baseline group was removed from the model for analyses stratified by baseline EDSS score.

[2] = test system: peripheral blood lymphocyte count; conditions: cited from earlier work
[3] = in vivo; cited from earlier work
[4] = from start of study treatment to EOS, P=0.0005
[5] = from start of study treatment to EOT+7 days of follow up, P=0.0007

Compound | reduction of annualized relapse rate (ARR) ([1]; PON 20 mg vs teriflunomide (TER) 14 mg, patients with RMS) | proportion of patients who received ≥1 SCS therapy for treatment of relapse [1] [%] | least squares mean of accumulated steroid dose (prednisone equivalent doses) for treatment of relapse [1, 4] [mg] | least squares mean of accumulated steroid dose (prednisone equivalent doses) for treatment of relapse [1, 5] [mg] | proportion of patients who received ≥1 SCS therapy, stratified by baseline disability ([1]; only among patients with baseline EDSS≤3.5, compared with teriflunomide group) | peripheral blood lymphocyte count ([2]; blocking the egress of lymphocytes from lymphoid organs) | monocyte, natural killer (NK) cell and neutrophil counts ([2]; in vivo) | elimination from plasma [3]
CCC/N=C1\S/C(=C\c2ccc(OC[C@H](O)CO)c(Cl)c2)C(=O)N1c1ccccc1C [PON, (R)-5-[3-chloro-4-(2,3-dihydroxy-propoxy)-benz[Z]ylidene]-2-([Z]-propylimino)-3-o-tolyl-thiazolidin-4-one] | superior efficacy | 29.1 | 3207.1 | 2977.1 | significantly smaller proportion | rapid, dose-dependent, and reversible reduction | not reduced | –
C/C(O)=C(\C#N)C(=O)Nc1ccc(C(F)(F)F)cc1 [TER] | – | 40.10 | 4257.2 | 3957.4 | – | – | – | eliminated slowly
